Data published in patent publication US10793580B2, “Substituted pyrazoloazepin-8-ones and their use as phosphodiesterase inhibitors” (LEO Pharma A/S, priority 2016, dated 2020).
Where two headings read alike, the source gives them in different places.

Molecular target: human PDE4D catalytic domain (Homo sapiens (Human), UniProt Q08499)
Assay: PDE4 Assay (TR-FRET, FAM-cAMP cleavage)
Format: biochemical
Details: read-out: PDE4 IC50 range
Description: The human PDE4D catalytic domain (UniProt no. Q08499 [S380-L740]) was incubated with a mixture of non-labelled cAMP (cyclic adenosine monophosphate) and fluorescein amidite (FAM) conjugated cAMP and titrated test or reference Compound. Following brief incubation the enzymatic reaction was stopped by addition of binding buffer containing nanoparticles with immobilized trivalent metal ions capable of binding 1) AMP phospho groups and 2) terbium (Tb) donor fluorophores. Subsequent excitation of the Tb donor triggers time-resolved FRET to adjacent FAM acceptor molecules resulting in light emission. In the presence of a PDE4 inhibitor, AMP generation was reduced resulting in a lower fluorescence signal. The cAMP phosphodiester is not bound by the detection system.
The results were calculated as the molar concentrations resulting in 50% inhibition of the substrate cleavage compared to controls samples, and are expressed as a range of IC50 (nM).

[1] = human PDE4D catalytic domain (UniProt Q08499 [S380-L740]), 50% inhibition of substrate cleavage

Sequence of human PDE4D catalytic domain (Q08499 380-740): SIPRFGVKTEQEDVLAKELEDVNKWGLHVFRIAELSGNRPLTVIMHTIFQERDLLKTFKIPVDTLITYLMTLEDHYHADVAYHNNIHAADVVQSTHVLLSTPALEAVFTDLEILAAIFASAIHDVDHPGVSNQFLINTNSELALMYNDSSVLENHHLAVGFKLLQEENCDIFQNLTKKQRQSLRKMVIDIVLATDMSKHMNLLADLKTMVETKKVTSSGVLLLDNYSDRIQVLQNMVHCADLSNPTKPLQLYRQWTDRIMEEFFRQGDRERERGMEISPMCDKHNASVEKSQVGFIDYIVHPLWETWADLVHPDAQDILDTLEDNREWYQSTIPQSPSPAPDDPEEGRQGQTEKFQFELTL

Compound | IC50 [1] | other results
CCn1nc(CCCOC(=O)c2cccc(C(N)=O)c2)c2c1C(=O)NCC1(CCOCC1)C2 [Example 113, 3-(1-ethyl-8-oxo-spiro[6,7-dihydro-4H-pyrazolo[3,4-c]azepine-5,4′-tetrahydropyran]-3-yl)propyl 3-carbamoylbenzoate] | < 100 nM | –
CCn1ccc(C(=O)OCCCc2nn(CC)c3c2CC2(CCOCC2)CNC3=O)n1 [Example 248, 3-(1-ethyl-8-oxo-spiro[6,7-dihydro-4H-pyrazolo[3,4-c]azepine-5,4′-tetrahydropyran]-3-yl)propyl 1-ethylpyrazole-3-carboxylate] | < 100 nM | –
CCn1nc(CCCOC(=O)c2ccc(OC)c(Cl)c2)c2c1C(=O)NCC1(CCOCC1)C2 [Example 58, 3-(1-ethyl-8-oxo-spiro[6,7-dihydro-4H-pyrazolo[3,4-c]azepine-5,4′-tetrahydropyran]-3-yl)propyl 3-chloro-4-methoxy-benzoate] | < 100 nM | –
CCn1nc(C[C@@H](C)COC(=O)c2cccc(C)c2)c2c1C(=O)NCC1(CCOCC1)C2 [Example 142, [(2R)-3-(1-ethyl-8-oxo-spiro[6,7-dihydro-4H-pyrazolo[3,4-c]azepine-5,4′-tetrahydropyran]-3-yl)-2-methyl-propyl] 3-methylbenzoate] | < 100 nM | –
CCn1nc(CC(C)(C)COC(=O)CCSC)c2c1C(=O)NCC1(CCOCC1)C2 [Example 187, [3-(1-ethyl-8-oxo-spiro[6,7-dihydro-4H-pyrazolo[3,4-c]azepine-5,4′-tetrahydropyran]-3-yl)-2,2-dimethyl-propyl] 3-methylsulfanylpropanoate] | < 100 nM | –
CCn1nc(CCCOC(=O)c2cccc(S(C)(=O)=O)c2)c2c1C(=O)NCC1(CCOCC1)C2 [Example 63, 3-(1-ethyl-8-oxo-spiro[6,7-dihydro-4H-pyrazolo[3,4-c]azepine-5,4′-tetrahydropyran]-3-yl)propyl 3-methylsulfonylbenzoate] | < 100 nM | –
CCn1nc(CCCCOC(=O)c2cc(C)nc(C)c2)c2c1C(=O)NCC1(CCOCC1)C2 [Example 273, 4-(1-ethyl-8-oxo-spiro[6,7-dihydro-4H-pyrazolo[3,4-c]azepine-5,4′-tetrahydro-pyran]-3-yl)butyl 2,6-dimethylpyridine-4-carboxylate] | < 100 nM | –
CCn1nc(C[C@@H](C)COC(=O)c2cccc(S(=O)(=O)C(C)C)c2)c2c1C(=O)NCC1(CCOCC1)C2 [Example 159, [(2R)-3-(1-ethyl-8-oxo-spiro[6,7-dihydro-4H-pyrazolo[3,4-c]azepine-5,4′-tetrahydropyran]-3-yl)-2-methyl-propyl] 3-isopropylsulfonylbenzoate] | < 100 nM | –
CCn1nc(CCCOC(=O)c2cccc(S(=O)(=O)N3CCCC3)c2)c2c1C(=O)NCC1(CCOCC1)C2 [Example 95, 3-(1-ethyl-8-oxo-spiro[6,7-dihydro-4H-pyrazolo[3,4-c]azepine-5,4′-tetrahydro-pyran]-3-yl)propyl 3-pyrro-lidin-1-ylsulfonylbenzoate] | < 100 nM | –
CCn1nc(CCCOC(=O)c2ccc(C)cc2OC)c2c1C(=O)NCC1(CCOCC1)C2 [Example 34, 3-(1-ethyl-8-oxo-spiro[6,7-dihydro-4H-pyrazolo[3,4-c]azepine-5,4′-tetrahydropyran]-3-yl)propyl 2-methoxy-4-methyl-benzoate] | < 100 nM | –
CCn1nc(CCCOC(=O)c2cnn(C)c2)c2c1C(=O)NCC1(CCOCC1)C2 [Example 238, 3-(1-ethyl-8-oxo-spiro[6,7-dihydro-4H-pyrazolo[3,4-c]azepine-5,4′-tetrahydropyran]-3-yl)propyl 1-methylpyrazole-4-carboxylate] | < 100 nM | –
CCn1nc(CCCCOC(=O)c2cnc(C)nc2)c2c1C(=O)NCC1(CCOCC1)C2 [Example 271, 4-(1-ethyl-8-oxo-spiro[6,7-dihydro-4H-pyrazolo[3,4-c]azepine-5,4′-tetrahydropyran]-3-yl)butyl 2-methylpyrimidine-5-carboxylate] | < 100 nM | –
CCn1nc(CCCOC(=O)c2cc(C#N)ccc2F)c2c1C(=O)NCC1(CCOCC1)C2 [Example 31, 3-(1-ethyl-8-oxo-spiro[6,7-dihydro-4H-pyrazolo[3,4-c]azepine-5,4′-tetrahydropyran]-3-yl)propyl 5-cyano-2-fluoro-benzoate] | < 100 nM | –
CCn1nc(CCCOC(=O)c2ccc(Cl)c(F)c2)c2c1C(=O)NCC1(CCOCC1)C2 [Example 48, 3-(1-ethyl-8-oxo-spiro[6,7-dihydro-4H-pyrazolo[3,4-c]azepine-5,4′-tetrahydropyran]-3-yl)propyl 4-chloro-3-fluoro-benzoate] | < 100 nM | –
CCn1nc(CCCOC(=O)c2cc(C(F)(F)F)ccc2F)c2c1C(=O)NCC1(CCOCC1)C2 [Example 73, 3-(1-ethyl-8-oxo-spiro[6,7-dihydro-4H-pyrazolo[3,4-c]azepine-5,4′-tetrahydro-pyran]-3-yl)propyl 2-fluoro-5-(trifluoromethyl)benzoate] | < 100 nM | –
CCn1nc(C[C@@H](C)COC(=O)c2cnc(C)s2)c2c1C(=O)NCC1(CCOCC1)C2 [Example 291, [(2R)-3-(1-ethyl-8-oxo-spiro[6,7-dihydro-4H-pyrazolo[3,4-c]azepine-5,4′-tetrahydropyran]-3-yl)-2-methyl-propyl] 2-methylthiazole-5-carboxylate] | – | IC50 (Table 16, Examples 277-296): < 100 nM
CCn1nc(CC(C)(C)COC(=O)c2ccns2)c2c1C(=O)NCC1(CCOCC1)C2 [Example 303, [3-(1-ethyl-8-oxo-spiro[6,7-dihydro-4H-pyrazolo[3,4-c]azepine-5,4′-tetrahydro-pyran]-3-yl)-2,2-dimethyl-propyl] isothiazole-5-carboxylate] | – | IC50 (Table 17, Examples 297-316): < 100 nM
CCn1nc(CCOC(=O)c2ccc(S(C)(=O)=O)cc2)c2c1C(=O)NCC1(CCOCC1)C2 [Example 136, 2-(1-ethyl-8-oxo-spiro-[6,7-dihydro-4H-pyrazolo-[3,4-c]azepine-5,4′-tetra-hydropyran]-3-yl)ethyl 4-methylsulfonylbenzoate] | < 100 nM | –
CCn1nc(CCCOC(=O)c2cccc(S(=O)(=O)NC)c2)c2c1C(=O)NCC1(CCOCC1)C2 [Example 78, 3-(1-ethyl-8-oxo-spiro[6,7-dihydro-4H-pyrazolo[3,4-c]azepine-5,4′-tetrahydro-pyran]-3-yl)propyl 3-(methylsulfamoyl)benzoate] | < 100 nM | –
CCn1nc(CCCOC(=O)C2CCCC2)c2c1C(=O)NCC1(CCOCC1)C2 [Example 5, 3-(1-ethyl-8-oxo-spiro[6,7-dihydro-4H-pyrazolo[3,4-c]azepine-5,4′-tetrahydropyran]-3-yl)propyl cyclopentanecarboxylate] | < 100 nM | –
CCn1nc(CC(C)(C)COC(=O)c2cccc(C(=O)N3CCN(C(C)=O)CC3)c2)c2c1C(=O)NCC1(CCOCC1)C2 [Example 234, [3-(1-ethyl-8-oxo-spiro[6,7-dihydro-4H-pyrazolo[3,4-c]azepine-5,4′-tetrahydropyran]-3-yl)-2,2-dimethyl-propyl] 3-(4-acetylpiperazine-1-carbonyl)benzoate] | < 100 nM | –
CCn1nc(CCCOC(=O)C2CCS(=O)(=O)CC2)c2c1C(=O)NCC1(CCOCC1)C2 [Example 262, 3-(1-ethyl-8-oxo-spiro[6,7-dihydro-4H-pyrazolo[3,4-c]azepine-5,4′-tetrahydro-pyran]-3-yl)propyl 1,1-dioxothiane-4-carboxylate] | < 100 nM | –
CCn1nc(CCCOC(=O)c2cc(Cl)ccc2OC)c2c1C(=O)NCC1(CCOCC1)C2 [Example 60, 3-(1-ethyl-8-oxo-spiro[6,7-dihydro-4H-pyrazolo[3,4-c]azepine-5,4′-tetrahydropyran]-3-yl)propyl 5-chloro-2-methoxy-benzoate] | < 100 nM | –
CCn1nc(C[C@@H](C)COC(=O)CCOC)c2c1C(=O)NCC1(CCOCC1)C2 [Example 137, [(2R)-3-(1-ethyl-8-oxo-spiro[6,7-dihydro-4H-pyrazolo[3,4-c]azepine-5,4′-tetrahydropyran]-3-yl)-2-methyl-propyl] 3-methoxypropanoate] | < 100 nM | –
CCn1nc(C[C@@H](C)COC(=O)c2cc(C)nc(C)c2)c2c1C(=O)NCC1(CCOCC1)C2 [Example 293, [(2R)-3-(1-ethyl-8-oxo-spiro[6,7-dihydro-4H-pyrazolo[3,4-c]azepine-5,4′-tetrahydropyran]-3-yl)-2-methyl-propyl] 2,6-dimethylpyridine-4-carboxylate] | – | IC50 (Table 16, Examples 277-296): < 100 nM
CCn1nc(CCCOC(=O)c2ccc(C(N)=O)cc2)c2c1C(=O)NCC1(CCOCC1)C2 [Example 104, 3-(1-ethyl-8-oxo-spiro[6,7-dihydro-4H-pyrazolo[3,4-c]azepine-5,4′-tetrahydropyran]-3-yl)propyl 4-carbamoylbenzoate] | < 100 nM | –
CCn1nc(CC(C)(C)COC(=O)c2cc(C)n(C)n2)c2c1C(=O)NCC1(CCOCC1)C2 [Example 309, [3-(1-ethyl-8-oxo-spiro[6,7-dihydro-4H-pyrazolo[3,4-c]azepine-5,4′-tetrahydro-pyran]-3-yl)-2,2-dimethyl-propyl] 1,5-dimethylpyrazole-3-carboxylate] | – | IC50 (Table 17, Examples 297-316): < 100 nM
CCn1nc(CCCOC(=O)c2ccc(S(=O)(=O)N(C)C)cc2)c2c1C(=O)NCC1(CCOCC1)C2 [Example 2, 3-(1-Ethyl-8-oxo-spiro[6,7-dihydro-4H-pyrazolo[3,4-c]azepine-5,4′-tetrahydropyran]-3-yl)propyl 4-(dimethylsulfamoyl)benzoate] | < 100 nM | –
CCn1nc(C[C@@H](C)COC(=O)c2cocn2)c2c1C(=O)NCC1(CCOCC1)C2 [Example 277, [(2R)-3-(1-ethyl-8-oxo-spiro[6,7-dihydro-4H-pyrazolo[3,4-c]azepine-5,4′-tetrahydropyran]-3-yl)-2-methyl-propyl] oxazole-4-carboxylate] | – | IC50 (Table 16, Examples 277-296): < 100 nM
